Biological target: T1, soluble guanylate cyclase (sGC) (Homo sapiens, UniProt Q02108+Q02153)
T1 construct: endogenously expressing soluble guanylate cyclase (sGC); endogenous in cells; host or cells: HEK293
T1 sequence (Q02153 1-619): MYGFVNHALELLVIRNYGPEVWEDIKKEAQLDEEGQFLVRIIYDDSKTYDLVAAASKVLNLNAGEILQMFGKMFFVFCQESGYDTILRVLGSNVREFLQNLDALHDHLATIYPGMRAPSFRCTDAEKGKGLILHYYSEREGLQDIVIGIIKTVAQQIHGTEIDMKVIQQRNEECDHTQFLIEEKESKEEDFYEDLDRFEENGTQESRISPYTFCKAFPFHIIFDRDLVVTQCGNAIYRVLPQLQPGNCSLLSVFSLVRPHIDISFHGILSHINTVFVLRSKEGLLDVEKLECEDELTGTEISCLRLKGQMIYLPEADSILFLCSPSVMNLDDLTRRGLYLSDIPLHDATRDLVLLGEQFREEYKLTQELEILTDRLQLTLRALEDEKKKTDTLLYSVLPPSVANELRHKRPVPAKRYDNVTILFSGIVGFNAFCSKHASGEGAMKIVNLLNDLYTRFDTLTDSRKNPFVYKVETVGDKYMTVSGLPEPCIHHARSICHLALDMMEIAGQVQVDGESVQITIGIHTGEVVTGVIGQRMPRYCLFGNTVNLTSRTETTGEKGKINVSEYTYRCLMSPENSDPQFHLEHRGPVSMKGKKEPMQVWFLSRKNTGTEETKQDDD
T1 sequence (Q02108 1-690): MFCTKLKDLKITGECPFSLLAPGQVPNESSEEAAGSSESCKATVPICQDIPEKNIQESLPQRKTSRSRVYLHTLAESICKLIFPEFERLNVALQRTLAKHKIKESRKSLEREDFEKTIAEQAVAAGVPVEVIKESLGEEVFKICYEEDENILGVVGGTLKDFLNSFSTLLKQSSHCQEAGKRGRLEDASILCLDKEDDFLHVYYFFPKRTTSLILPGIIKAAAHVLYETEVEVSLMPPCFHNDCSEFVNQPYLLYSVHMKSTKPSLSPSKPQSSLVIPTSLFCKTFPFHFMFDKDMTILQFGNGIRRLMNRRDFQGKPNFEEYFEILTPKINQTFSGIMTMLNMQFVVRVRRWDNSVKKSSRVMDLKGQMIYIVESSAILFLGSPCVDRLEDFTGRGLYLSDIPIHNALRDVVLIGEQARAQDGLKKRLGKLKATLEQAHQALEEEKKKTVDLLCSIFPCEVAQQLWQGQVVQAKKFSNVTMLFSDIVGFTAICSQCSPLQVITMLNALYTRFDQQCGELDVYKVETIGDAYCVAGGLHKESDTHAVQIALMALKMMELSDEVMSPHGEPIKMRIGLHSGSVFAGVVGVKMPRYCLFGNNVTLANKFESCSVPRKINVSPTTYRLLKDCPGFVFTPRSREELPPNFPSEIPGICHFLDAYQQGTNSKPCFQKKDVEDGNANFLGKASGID
Assay: sGC-HEK-cGMP assay with LC/MS detection
Format: cell-based
Details: HEK293 whole cells, LC/MS detection of cGMP, 10 μM DETA-NONOate; 50% of high control response (30 μM Compound Y); read-out: Absolute EC50 (nM)- binned (~)

Row | EC50 [nM] | Compound
1 | < 100 | O=C(NC1CC1)C(O)(CNc1nc(-c2cc(-c3ccon3)n(Cc3ccccc3F)n2)ncc1F)C(F)(F)F (stereo not drawn) [Compound 65]
2 | 100 to 1000 | CC(=O)c1cc(-c2ncc(F)c(N3CCC(C)(C(=O)O)CC3)n2)nn1Cc1ccccc1F [Compound 181]
3 | 100 to 1000 | O=S(=O)(Nc1ccc(CNc2nc(-c3cc(-c4ccon4)n(Cc4ccccc4F)n3)ncc2F)cc1O)C1CC1 [Compound 160, N-(4-(((5-fluoro-2-(1-(2-fluorobenzyl)-5-(isoxazol-3-yl)-1H-pyrazol-3-yl)pyrimidin-4-yl)amino)methyl)-2-hydroxyphenyl)cyclopropanesulfonamide]
4 | > 1000 | CS(=O)(=O)CCNc1cnc(-c2cc(-c3ccon3)n(Cc3ccccc3F)n2)nc1 [Compound 22]
5 | > 1000 | CC(=O)c1cc(-c2ncc(F)c(NS(=O)(=O)c3ccccc3)n2)nn1Cc1ccccc1F [Compound 98]
6 | < 100 | C[C@@](N)(CNc1nc(-c2cc(-c3ccon3)n(Cc3ccccc3F)n2)ncc1F)C(F)(F)F [Compound 106]
7 | < 100 | O=C(OCCNc1nc(-c2cc(-c3ccon3)n(Cc3ccccc3F)n2)ncc1F)c1ccccn1 [Compound 206]
8 | 100 to 1000 | OC(CNc1nc(-c2cc(-c3ncco3)n(Cc3ccccc3F)n2)ncc1F)(C(F)(F)F)C(F)(F)F [Compound 103]
9 | < 100 | CC(C)C[C@H](CO)Nc1nc(-c2cc(-c3ccon3)n(Cc3ccccc3F)n2)ncc1F [Compound 149, (R)-2-((5-fluoro-2-(1-(2-fluorobenzyl)-5-(isoxazol-3-yl)-1H-pyrazol-3-yl)pyrimidin-4-yl)amino)-4-m ethylpentan-1-ol]
10 | > 1000 | NC(=O)Cc1c[nH]n(-c2nc(-c3cc(-c4ccon4)n(Cc4ccccc4F)n3)ncc2F)c1=O [Compound 40]
11 | 100 to 1000 | O=C(Cc1cc(=O)o[nH]1)Nc1ccnc(-c2cc(-c3ccon3)n(Cc3ccccc3F)n2)n1 [Compound 75]
12 | > 1000 | CCOC(=O)C(C)(C)c1nnc(-c2cc(-c3ccon3)n(Cc3ccccc3F)n2)nc1OC [Compound 61]
13 | 100 to 1000 | CCOC(=O)[C@H](CN(C)c1nc(-c2cc(C(C)=O)n(Cc3ccccc3F)n2)ncc1F)C(C)C [Compound 74]
14 | > 1000 | CCN(CC)c1nc(-c2cc(-c3ncco3)n(Cc3ccccc3F)n2)ncc1F [Compound 140]
15 | 100 to 1000 | CCC(N)(CC)CNc1nc(-c2cc(-c3ccon3)n(Cc3ccccc3F)n2)ncc1F [Compound 153, 2-ethyl-N1-(5-fluoro-2-(1-(2-fluorobenzyl)-5-(isoxazol-3-yl)-1H-pyrazol-3-yl)pyrimidin-4-yl)butane-1,2-diamine]
16 | 100 to 1000 | CC(=O)c1cc(-c2ncc(F)c(N3CCC4(CCOCC4)C3)n2)nn1Cc1ccccc1F [Compound 112]
17 | 100 to 1000 | CC(=O)c1cc(-c2ncc(F)c(NC[C@@H](C(=O)O)C(C)C)n2)nn1Cc1ccccc1F [Compound 72]
18 | 100 to 1000 | CC(=O)c1cc(-c2ncc(F)c(N3CCOCC3)n2)nn1Cc1ccccc1F [Compound 95]
19 | > 30000 | COCc1cc(-c2ncc(F)c(NCC(O)(C(N)=O)C(F)(F)F)n2)nn1Cc1ccccc1F (stereo not drawn) [Compound 20]
20 | > 1000 | Oc1cccc(F)c1Cn1nc(-c2ncc(F)c(O)n2)cc1-c1ccon1 [Compound 182]
21 | < 100 | CCC[C@H](CO)Nc1nc(-c2cc(-c3ccon3)n(Cc3ccccc3F)n2)ncc1F [Compound 152, (R)-2-((5-fluoro-2-(1-(2-fluorobenzyl)-5-(isoxazol-3-yl)-1H-pyrazol-3-yl)pyrimidin-4-yl)amino)pentan-1-ol]

Row | EC50 [nM] | Compound
22 | 100 to 1000 | Fc1ccccc1Cn1nc(-c2ncc(F)c(N3CCCCO3)n2)cc1-c1ccon1 [Compound 34]
23 | 100 to 1000 | Cc1nnc(Nc2nc(-c3cc(-c4ccon4)n(Cc4ccccc4F)n3)ncc2F)o1 [Compound 14]
24 | > 1000 | O=C(CN1CCCCC1)OCCNc1nc(-c2cc(-c3ccon3)n(Cc3ccccc3F)n2)ncc1F [Compound 200]
25 | > 30000 | O=[N+]([O-])c1cnc(-c2cc(-c3ccon3)n(Cc3ccccc3F)n2)nc1NCCO [Compound 7]
26 | > 1000 | CC(=O)c1cc(-c2ncc(F)c(N3CCCC3)n2)nn1Cc1ccccc1F [Compound 92]
27 | < 100 | CCCC[C@H](CO)Nc1nc(-c2cc(-c3ccon3)n(Cc3ccccc3F)n2)ncc1F [Compound 151, (R)-2-((5-fluoro-2-(1-(2-fluorobenzyl)-5-(isoxazol-3-yl)-1H-pyrazol-3-yl)pyrimidin-4-yl)amino)hexan-1-ol]
28 | > 1000 | COC1=CC(=O)N(c2nc(-c3cc(-c4ccon4)n(Cc4ccccc4F)n3)ncc2F)C1 [Compound 147, 1-(5-fluoro-2-(1-(2-fluorobenzyl)-5-(isoxazol-3-yl)-1H-pyrazol-3-yl)pyrimidin-4-yl)-4-methoxy-1H-pyrrol-2(5H)-one]
29 | > 1000 | CC(=O)c1cc(-c2ncc(F)c(N)n2)nn1Cc1ccccc1F [Compound 84]
30 | > 1000 | CC(C)(C(=O)O)C(=O)Nc1ccnc(-c2cc(-c3ccon3)n(Cc3ccccc3F)n2)n1 [Compound 49]
31 | > 1000 | CC(=O)c1cc(-c2ncc(F)c(N3CCNCC3)n2)nn1Cc1ccccc1F [Compound 94]
32 | > 1000 | CC(=O)c1cc(-c2ncc(F)c(N3CCNC(=O)C3)n2)nn1Cc1ccccc1F [Compound 77]
33 | > 1000 | Nc1nc(-c2cc(-c3ccon3)n(Cc3ccccc3F)n2)nc(N)c1NS(=O)(=O)CCC(F)(F)F [Compound 19]
34 | > 1000 | CC(=O)c1cc(-c2ncc(F)c(N3CC(F)(F)C3)n2)nn1Cc1ccccc1F [Compound 114]
35 | > 1000 | CCCS(=O)(=O)Nc1nc(-c2cc(C(C)=O)n(Cc3ccccc3F)n2)ncc1F [Compound 97]
36 | 100 to 1000 | CC(=O)c1cc(-c2ncc(F)c(N3CCC(C(=O)O)(c4ccccc4)CC3)n2)nn1Cc1ccccc1F [Compound 139, 1-(2-(5-acetyl-1-(2-fluorobenzyl)-1H-pyrazol-3-yl)-5-fluoropyrimidin-4-yl)-4-phenylpiperidine-4-carboxylic acid]
37 | > 1000 | CCC(C)(N)CNc1nc(-c2cc(C(C)=O)n(Cc3ccccc3F)n2)ncc1F (stereo not drawn) [Compound 129, 1-(3-(4-((2-amino-2-methylbutyl)amino)-5-fluoropyrimidin-2-yl)-1-(2-fluorobenzyl)-1H-pyrazol-5-yl)ethanone]
38 | < 100 | CC1(C#N)C(=O)Nc2nc(-c3cc(-c4ccon4)n(Cc4ccccc4F)n3)nc(N)c21 (stereo not drawn) [Compound 29]
39 | > 30000 | CC(=O)c1cc(-c2ncc(F)c(Nc3nnc(C(F)(F)F)s3)n2)nn1Cc1ccccc1F [Compound 126]
40 | > 1000 | CC(=O)c1cc(-c2ncc(F)c(N3CC(NC(=O)C(F)(F)F)C3)n2)nn1Cc1ccccc1F [Compound 121]
41 | 100 to 1000 | CCCC(C)(N)CNc1nc(-c2cc(-c3ccon3)n(Cc3ccccc3F)n2)ncc1F (stereo not drawn) [Compound 155, N1-(5-fluoro-2-(1-(2-fluorobenzyl)-5-(isoxazol-3-yl)-1H-pyrazol-3-yl)pyrimidin-4-yl)-2-methylpentane-1,2-diamine]

Row | Compound | EC50 [nM]
42 | OC(CNc1nc(-n2cc(-c3ccon3)c(Cc3ccccc3F)n2)ncc1F)(C(F)(F)F)C(F)(F)F [Compound 26] | 100 to 1000

From patent US20190284168A1, “PYRAZOLE DERIVATIES AS SGC STIMULATORS” (IRONWOOD PHARMACEUTICALS, INC., priority 2014, published 2019)
